± gives the expanded uncertainty stated by the source.
Conditions: 101.33 kPa, Crystal, Small (less than 1 g) adiabatic calorimetry

Compound | molar entropy (10 K) [J/K/mol] | molar entropy (20 K) [J/K/mol] | molar entropy (30 K) [J/K/mol] | molar entropy (40 K) [J/K/mol] | molar entropy (50 K) [J/K/mol] | molar entropy (60 K) [J/K/mol] | molar entropy (70 K) [J/K/mol] | molar entropy (80 K) [J/K/mol] | molar entropy (90 K) [J/K/mol] | molar entropy (100 K) [J/K/mol] | molar entropy (120 K) [J/K/mol] | molar entropy (140 K) [J/K/mol] | molar entropy (160 K) [J/K/mol] | molar entropy (180 K) [J/K/mol] | molar entropy (200 K) [J/K/mol] | molar entropy (220 K) [J/K/mol] | molar entropy (240 K) [J/K/mol] | molar entropy (260 K) [J/K/mol] | molar entropy (280 K) [J/K/mol] | molar entropy (298.15 K) [J/K/mol] | also measured
[Ba+2].[O-2].[O-2].[O-2].[Zr+4] [barium zirconium(IV) oxide] | 0.053 ± 0.024 | 0.666 ± 0.033 | 2.753 ± 0.13 | 6.284 ± 0.17 | 10.7 ± 0.23 | 15.67 ± 0.3 | 20.91 ± 0.38 | 26.27 ± 0.46 | 31.67 ± 0.59 | 37.05 ± 0.67 | 47.64 ± 0.83 | 57.88 ± 0.98 | 67.72 ± 1.1 | 77.16 ± 1.3 | 86.23 ± 1.4 | 94.92 ± 1.6 | 103.2 ± 1.7 | 111.2 ± 1.8 | 118.8 ± 1.9 | 125.5 ± 2 | molar entropy (300 K): 126.2 ± 2 J/K/mol
[Ba+2].[Ce+4].[O-2].[O-2].[O-2] [barium cerium(IV) oxide] | 0.084 ± 0.025 | 1.242 ± 0.042 | 4.425 ± 0.15 | 9.136 ± 0.21 | 14.71 ± 0.29 | 20.8 ± 0.38 | 27.13 ± 0.48 | 33.51 ± 0.58 | 39.88 ± 0.71 | 46.2 ± 0.8 | 58.56 ± 0.99 | 70.43 ± 1.2 | 81.77 ± 1.4 | 92.55 ± 1.5 | 102.8 ± 1.7 | 112.5 ± 1.8 | 121.7 ± 2 | 130.4 ± 2.1 | 138.6 ± 2.2 | 145.8 ± 2.3 | molar entropy (300 K): 146.6 ± 2.4 J/K/mol

— the NIST ThermoML archive (doi:10.1016/j.tca.2006.01.020)
